Results reported in patent US11219218B2, “Methods of enhancing algae production” (Boise State University, priority 2018, dated 2022).
Read-outs that look alike come from different tables or passages of the source.

Tests used:
Brachionus rotifer = settings: cited from earlier work
Chlorella pyrenoidosa = settings: Tan et al., 2015; cited from earlier work
Nannochloropsis oculata = settings: Gutierrez et al., 2016, cited from earlier work
Scenedesmus obliquus = settings: Abeliovich and Azov, 1976; cited from earlier work
N. oculata [1] = test system: N. oculata
B. plicatilis [2] = settings: for effect of elevated free ammonia exposure time on 24-hour rotifer survival: pH 9, exposure 0-12 hours; for mean rotifer densities over the eight-day experiment: f/2 and ADE media
Procedure: (§1) Five free ammonia exposure times were chosen (0, 1, 2, 6, and 12 hours) with the goal of identifying which times may lead to an optimal reduction of B. plicatilis populations without negatively affecting N. oculata growth. We also used a rotifer-free control to observe the growth of N. oculata with neither rotifers nor elevated free ammonia exposure relative to experimental treatments. We conducted this experiment in both defined media (f/2) and dairy wastewater (ADE) to observe any differences between media types. For the defined medium trial, we created culture mixtures containing f/2 in ASW, 0.01 M Tris base, N. oculata at approximately 1×10^6 cells mL^−1 and B. plicatilis at approximately 10 rotifers mL^−1. NH4Cl was added to this mixture to initiate the period of free ammonia exposure. Similarly, for the dairy wastewater trial, we created culture mixtures containing ASW, 0.01 M Tris base, N. oculata at approximately 1×10^6 cells mL^−1, and B. plicatilis at approximately 10 rotifers/mL. The initial cell density of N. oculata was meant to represent a high-density culture nearing early stationary phase, which also allowed for increases in cell density. The initial rotifer density was chosen to represent initial stages of a contamination event after exposure of the algal culture to colonizing rotifer pests, at which point contamination is detectable yet treatable. ADE was added to this mixture to initiate the period of free ammonia exposure. For both trials, pH was immediately adjusted to 9 for the 1, 2, 6, and 12 hour treatments and held at this pH for the designated exposure time. The 0 hour and control treatments were adjusted to pH 6.3-6.5 via CO2 addition prior to addition of the ammonium source, thereby eliminating any exposure to elevated free ammonia. […] Thus, all treatments within an experiment received the same amount of CO2 and the same amount of total NH3—N. Flasks were shaken and stirred once daily on a stir plate while pH was being adjusted to desired level. In this experiment, pH was measured and controlled in each treatment using American Marine Pinpoint pH controllers.
(§2) Samples for total NH3—N were collected at the beginning and end of the exposure time for each treatment in order to quantify potential loss of N from the system caused by volatilization of free ammonia. Densities of N. oculata and B. plicatilis were measured at the initial free ammonia exposure time, and every 24 hours thereafter for eight days. Live B. plicatilis were enumerated in triplicate 1 mL counts in a Sedgewick-Rafter counting chamber (Wildco item #EW-05491-64), and growth of N. oculata was tracked by both OD680 measurement and direct cell counts. Final ash free dry weight (AFDW) was measured on day eight for all replicates.
(§3) We chose this range in order to eliminate possible free ammonia inhibition after the designated exposure period while also staying within the pH range for optimal growth of N. oculata.

N. oculata [3] = settings: for algal growth rate / final AFDW: co-culture with B. plicatilis; for final AFDW: day eight
Procedure: as §1, §2, §3

B. plicatilis [4] = test system: B. plicatilis
Chlorella sorokiniana = settings: Gutierrez et al., 2016; cited from earlier work

## N [free ammonia, ammonia]
Brachionus rotifer; Schlüter and Groeneweg, 1985
  concentration that causes complete mortality: over 5 mg/L free NH3—N
Brachionus rotifer; de Araujo et al., 2000
  concentration that reduces Brachionus rotifer reproduction: ≥ 2.4 mg/L
Chlorella pyrenoidosa
  concentration tolerated without inhibition of photosynthesis or growth rate: up to 20 mg/L free NH3—N
Nannochloropsis oculata
  highest level tested, not inhibited: 16 mg free NH3—N
Nannochloropsis oculata; exposure to high free ammonia levels
  lipid content of N. oculata: not significantly altered
Scenedesmus obliquus
  concentration tolerated without inhibition of photosynthesis or growth rate: up to 28 mg/L free NH3—N
N. oculata [1]; ADE cultures
  effect of free ammonia concentration on final OD680 levels: no effect
N. oculata [1]; ADE medium
  effect of initial free ammonia on growth rates: no effect
N. oculata [1]; f/2 medium
  OD680 levels of N. oculata with increasing free ammonia levels: increased
  effect of initial free ammonia on growth rates: no effect
N. oculata [1]; f/2 or ADE media, any of the free ammonia levels tested, seven days
  inhibition of N. oculata: no observed inhibition
B. plicatilis [2]; ADE medium, 52.8 mg L^−1 free ammonia
  prediction formula for 24-hour B. plicatilis survival against exposure time (FIG. 3): ln(% survival)=4.768-0.2902*exposure time
B. plicatilis [2]; dairy ADE medium
  effect of elevated free ammonia exposure time on 24-hour rotifer survival: significantly decreased
B. plicatilis [2]; f/2 medium
  effect of elevated free ammonia exposure time on 24-hour rotifer survival: significantly decreased
B. plicatilis [2]; six-hour exposure time
  mean rotifer densities over the eight-day experiment: remained below the initial density
B. plicatilis [2]; twelve-hour exposure time
  mean rotifer densities over the eight-day experiment: remained below the initial density
B. plicatilis [2]; two hours or less of exposure, ADE medium
  rotifer density over the eight-day experiment: proliferated, with up to an order of magnitude increase in rotifer density
N. oculata [3]; 6-12 hours of elevated free ammonia, both media types
  effects on the alga Nannochloropsis oculata: no negative effects
N. oculata [3]; 6-hour exposure time
  algal growth rate: 0.70 ± 0.01 day⁻¹
  final AFDW: 0.37 ± 0.004 g/L
N. oculata [3]; 12-hour exposure time
  algal growth rate: 0.60 ± 0.06 day⁻¹
  final AFDW: 0.38 ± 0.004 g/L
B. plicatilis [4]; 5% ADE medium
  prediction formula for 24-hour rotifer survival against free ammonia concentration (FIG. 1A): ln(% survival)=3.606-0.0357*exposure time
B. plicatilis [4]; 5% dairy ADE, free ammonia 0.77-48.9 mg L^−1 (pH 7-9)
  relationship between initial free ammonia concentration and B. plicatilis survival after 24 hours: significant negative relationship
B. plicatilis [4]; ASW medium with NH4Cl, free ammonia 0.65-41.6 mg L^−1 (pH 7-9)
  relationship between initial free ammonia concentration and B. plicatilis survival after 24 hours: significant negative relationship
Chlorella sorokiniana
  highest level tested, not inhibited: 16 mg free NH3—N
